Counter-ions that a name gives are not always drawn.

Here are results for 18 compounds from US9359279B2, “Treatment of cancer, inflammatory disease, and autoimmune disease” (AndroScience Corporation, priority 2010, dated 2016).

One data set concerns MRG (MgcRacGAP). Description: Western blot analysis of MRG protein in KT-3 cells. To be noted: KT-3 cells, 1, 5, or 20 μM, 0.5-6 hours. Format: cell-based, human. The procedure: (§1) Western Blot Analysis of MRG, STAT1, STAT3, and STAT5 Proteins in KT-3 Cells
(§2) Western Blot analysis was performed as described in Kawashima et al., J. Immunol. 2001, 167:3652-3660, with minor modifications. Briefly, KT-3 cells were treated with 1, 5, or 20 μM of compound 6 or vehicle alone in the above described IL-6-containing medium. At various time points after incubation (i.e., 0.5, 1, 3, and 6 hours after the treatment), cells were harvested and lysed using a lysis buffer (1.0% Triton X-100, 50 mM Tris-HCl (pH 7.5), 0.1 mM EDTA, 150 mM NaCl, 200 μM Na3VO4, 50 mM NaF, 1 mM dithiothreitol, 0.4 mM phenylmethylsulfonyl fluoride, 3 μg/ml of aprotinin, 2 μg/ml of pepstatin A, 1 μg/ml of leupeptin) at 2×10^7 cells/ml on ice for 30 min. Cell lysates were harvested by centrifugation at 12,000×g for 15 min. The samples (1×10^5 cell equivalent/lane) were subjected to sodium dodecyl sulfate-polyacrylamide gel electrophoresis and subsequently transferred onto Immobilon filters (Millipore). After blocked with 5% BSA, the filter was probed with anti-pSTAT3, STAT3, STAT5, STAT1, MRG or Actin Abs. The rabbit polyclonal anti-STAT3, anti-STAT5, anti-STAT1, and anti-Actin antibodies (Abs), and mouse monoclonal anti-pSTAT3 Ab (B-7) were obtained from Santa Cruz Biotechnology. Affinity purified anti-MRG Ab was prepared as described previously in Hirose et al., J. Biol. Chem. 276:5821-5828. […]

A further data set relates to STAT5. Description: Western blot analysis of STAT5 protein in KT-3 cells. Format: cell-based, human. The note with it: KT-3 cells, 1, 5, or 20 μM, 0.5-6 hours. The procedure:
as §1, §2

The test system of the next data set is STAT1. Description: Western blot analysis of STAT1 protein in KT-3 cells. Format: cell-based, human. The note with it: KT-3 cells, 1, 5, or 20 μM, 0.5-6 hours. Here is the method:
as §1, §2

For another data set, the system named is pSTAT3. As to the kind of experiment: Western blot analysis of STAT3 phosphorylation (pSTAT3) in KT-3 cells. Format: cell-based, human. The note with it: KT-3 cells, 1, 5, or 20 μM, 0.5-6 hours. Here is the method: as §1, §2
The test system of a further data set is STAT3. Description: Western blot analysis of STAT3 protein in KT-3 cells. Format: cell-based, human. To be noted: KT-3 cells, 1, 5, or 20 μM, 0.5-6 hours. Here is the method: as §1, §2
In data set [1] the test system is various human tumor cell lines (HCT116, HT29, SW480, SW620, Colo205, PC-3, Dul145, CWR22RV, LNCap, NCI-H1299, A549, NCI-H460, MDA-MB-453, T-47D, MCF7, Huh-7 …). As to the kind of experiment: Inhibition of growth of various human tumor cell lines (MTT). Format: cell-based. The note with it: 0 to 5 μM, 72 h. Here is the method:
(§3) Inhibition of Growth of Various Human Tumor Cell Lines
(§4) The inhibitory effects of Compound 6 were determined as described below on the growth of colon cancer cells (HCT116, HT29, SW480, and SW620), colon adenocarcinoma cells (Colo205), prostate adenocarcinoma cells (PC-3 and Dul145), prostate carcinoma cells (CWR22RV and LNCap), non-small cell lung carcinoma cells (NCI-H1299), lung adnocarcinoma cells (A549), large cell lung carcinoma cells (NCI-H460), breast metastatic carcinoma cells (MDA-MB-453), breast ductal carcinoma cells (T-47D), breast adnocarcinoma cells (MCF7), hepatocellular carcinoma cells (Huh-7 and HepG2), pancreatic carcinoma cells (PANC-1), cervix adnocarcinoma cells (Hela), IL-6-dependent Lennert's T-cell lymphoma cells (KT-3), IL-6-dependent multiple myeloma cells (INA-6), multiple myeloma cells (KMM-1 and U266), myeloid leukemia cells (HL-60), and T-cell leukemia cells (Jurkat). […] The viability of the tumor cells was then assessed using the tetrazolium-based calorimetric assay (MTT) as described in Su et al., J Mol Cell Cardiol. […] The resultant formazan crystals were solubilized with MTT lysis buffer (50% DMF, 24 mM HCl, 2% Acetic Acid, 5% SDS) and the absorbance at 595 nm was measured using a Benchmark microplate reader (BIO-RAD, Hercules, Calif.). […]

Assay in data set [2]: as above
Format: cell-based. The note with it: Homo sapiens, range over all tumor cell lines tested, 72 h, read-out: IC50 values, growth of all tumor cells tested. The procedure:
as §3, §4

A further data set has as its system HCT-116 cells. Description: Human colon cancer (HCT-116) mouse xenograft model. Format: in vivo. The note with it: athymic nude mice, HCT-116 xenograft, 40 mg/kg i.p. daily, days 0-4 and 7-10. The procedure:
Inhibitory Effect on Human Colon Cancer (HCT-116) in a Mouse Xenograft Model
The in vivo experiments were carried out under an Institutional Animal Care and Use Committee-approved protocol and followed Institutional guidelines for proper and humane use of animals in research. Six-week-old female athymic nude mice were purchased from the Harlan Laboratory. Each of eight mice was injected subcutaneously with 1×10^6 HCT-116 cells mixed with Matrigel (BD Bioscience) at the left flank. After injection, tumors were allowed to grow for 5 days into a palpable size (volume ˜100 mm^3) before treatment. Mice were randomized into two groups (n=4 per group). The control group was injected with a vehicle solution only (i.e., 10% DMSO and 90% corn oil), while the experimental group received a daily injection (i.p.) of compound 6 (at a dose of 40 mg/kg body weight, dissolved in the vehicle solution) from days 0 (the initiation day of injection) to 4 and from days 7 to 10. The sizes of tumors were measured twice a week using a Vernier caliper and calculated using the following formula: length×width×height×0.5236, as described in Rockwell et al., J Natl. Cancer Inst. 1972; 49:735-747.

For data set [3], the system named is human Lennert's T cell lymphoma KT-3 cells. Description: Inhibition of IL-6-induced proliferation of KT-3 cells (CellTiter Glo viability). Format: cell-based. To be noted: read-out: IC50 (the concentration at which a compound suppresses cell growth by 50%), hIL-6 2.5 ng/ml, 48 hours. The procedure: Inhibitory Effects on Proliferation of Human Lernert's T Cell Lymphoma KT-3
Inhibitory effects of compounds of this invention on the growth of human Lennert's T cell lymphoma KT-3 cells, an IL-6-dependent cell line, were determined as described below. […] To experimental wells, test compounds at various concentrations (in triplicates) were added immediately after the cells were plated. To the control wells, an equal volume of vehicle, DMSO (0.1% v/v), was added. After incubating the cells with the compounds or in vehicle for 48 hours, cell viability was assessed using a CellTiter Glo Luminescent Cell Viability Assay Kit (Promega, Madison, Wis.). The resultant luminescence was quantified using Microplate Luminometer LB96V (EG&G BERTH HOLD) according to the manufacturer's protocol. The cell surviving rate was calculated by dividing the luminescence value of compound-treated cells with that of vehicle-treated cells.

For `CCN(CC)CCOc1cccc(/C=C/C(=O)/C=C/c2cccc(O)c2)c1` (as salt: succinic acid salt) [Compound 47], the melting point was 104 to 106 °C.

As to `CCS(=O)(=O)Oc1cccc(/C=C/C(=O)/C=C/c2cccc(OS(=O)(=O)CC)c2)c1` [Compound 6], the MRG protein level entry in the data set on MRG (MgcRacGAP) is reported as “down-regulated”. Also, in the data set on STAT5, the STAT5 protein level entry was “down-regulated”. Moreover, the “expression of STAT1” value with STAT1 is listed as “no effect”. Besides, the “phosphorylation of STAT3 protein” value with pSTAT3 was “inhibited phosphorylation”. Besides, the STAT3 protein level result in the data set with STAT3 was “down-regulated”. In addition, the “inhibitory effects on the growth of all tumor cells tested” value in [1] was “dose-dependent inhibitory effects”. In addition, the figures for the IC50 in [2] and in data set [3] were 20 to 5500 nM and at most 50 nM, respectively. Moreover, the “human colon cancer growth (tumor size)” value in the data set with HCT-116 cells was “inhibited human colon cancer growth”. As to `O=C1/C(=C/c2cccc(O)c2)CN(C(=O)C2CC2)C/C1=C\c1cccc(O)c1` [Compound 16], the IC50 in [3] was at most 50 nM. Still for that read-out and setting: under `CCP(=O)(CC)Oc1cccc(/C=C/C(=O)/C=C/c2cccc(OP(=O)(CC)CC)c2)c1` [Compound 18] stands at most 50 nM. Consider `CCN(CC)CCOc1cccc(/C=C/C(=O)/C=C/c2cccc(O)c2)c1` [Compound 19], for which the IC50 in data set [3] is at most 50 nM. In the case of `CCS(=O)(=O)Oc1cccc(/C=C/C(=O)/C=C/c2cccc(OS(=O)(=O)CC)c2OS(=O)(=O)CC)c1` [Compound 26], in data set [3], the IC50 is at most 50 nM. As for `CCS(=O)(=O)Oc1cccc(/C=C/C(=O)/C=C/c2cc(OS(=O)(=O)CC)cc(OS(=O)(=O)CC)c2)c1` [Compound 27], the IC50 in data set [3] is at most 50 nM. Still for that read-out and setting: under `CCN(CC)CCOc1cccc(/C=C/C(=O)/C=C/c2cccc(O)c2O)c1` [Compound 35] stands at most 50 nM; under `CCN(CC)CCOc1cccc(/C=C/C(=O)/C=C/c2cccc(OCCN(CC)CC)c2O)c1` [Compound 36], at most 50 nM. Turning to `COc1ccc(/C=C/C(=O)/C=C/c2cccc(O)c2)cc1OC` [Compound 38], the melting point was in the range of 159 to 160 °C.

With `COc1ccc(/C=C/C(=O)/C=C/c2cccc(O)c2)cc1` [Compound 39], the melting point lay within 152 to 153 °C. Still for that read-out and setting: then `O=C(/C=C/c1cccc(O)c1)/C=C/c1cccc(C(F)(F)F)c1` [Compound 41], with 138 to 139 °C; and `O=C(/C=C/c1cccc(O)c1)/C=C/c1ccccc1F` [Compound 42], with 159 to 160 °C; and `CCS(=O)(=O)Oc1cccc(/C=C/C(=O)/C=C/c2ccc(OS(=O)(=O)CC)c(OS(=O)(=O)CC)c2)c1` [Compound 43], with 102 to 103 °C.

With `CCN(CC)CCOc1cccc(/C=C2\CN(C(=O)C3CC3)C/C(=C\c3cccc(O)c3)C2=O)c1` [Compound 45], in data set [3], the IC50 is at most 50 nM. In the case of `CCN(CC)CCOc1cccc(/C=C2\CN(C(=O)C3CC3)C/C(=C\c3cccc(OCCN(CC)CC)c3)C2=O)c1` [Compound 46], the IC50 in data set [3] is at most 50 nM. As for `O=C(/C=C/c1cccc(O)c1)/C=C/c1cccc(OCCCN2CCCCC2)c1` [Compound 56], the IC50 in data set [3] is at most 50 nM. On the same count and under the same terms, then `O=C(/C=C/c1cccc(O)c1)/C=C/c1cccc(OCCN2CCCCC2)c1` [Compound 57], with at most 50 nM.
